According to ChEMBL document CHEMBL5370624 (J Med Chem, 2023):
Calls of active or inactive are those of the source. The rule behind the calls is not given here.

Columns and labels:
[1] = molecular target: T1, Toll-like receptor 4 (Homo sapiens, UniProt O00206); test: Agonist activity at human TLR4 in human HEK-Blue hTLR4 cells assessed as NF-kappaB activation incubated for 48 hrs by SEAP reporter gene based Quanti-blue assay; format: cell-based
[2] = molecular target: T2, Toll-like receptor 4 (Mus musculus, UniProt Q9QUK6); test: Agonist activity at TLR4 in mouse RAW264.7 cells assessed as induction of MIP-1beta release incubated for 24 hrs by ELISA; format: cell-based
T2 sequence (Q9QUK6 whole entry): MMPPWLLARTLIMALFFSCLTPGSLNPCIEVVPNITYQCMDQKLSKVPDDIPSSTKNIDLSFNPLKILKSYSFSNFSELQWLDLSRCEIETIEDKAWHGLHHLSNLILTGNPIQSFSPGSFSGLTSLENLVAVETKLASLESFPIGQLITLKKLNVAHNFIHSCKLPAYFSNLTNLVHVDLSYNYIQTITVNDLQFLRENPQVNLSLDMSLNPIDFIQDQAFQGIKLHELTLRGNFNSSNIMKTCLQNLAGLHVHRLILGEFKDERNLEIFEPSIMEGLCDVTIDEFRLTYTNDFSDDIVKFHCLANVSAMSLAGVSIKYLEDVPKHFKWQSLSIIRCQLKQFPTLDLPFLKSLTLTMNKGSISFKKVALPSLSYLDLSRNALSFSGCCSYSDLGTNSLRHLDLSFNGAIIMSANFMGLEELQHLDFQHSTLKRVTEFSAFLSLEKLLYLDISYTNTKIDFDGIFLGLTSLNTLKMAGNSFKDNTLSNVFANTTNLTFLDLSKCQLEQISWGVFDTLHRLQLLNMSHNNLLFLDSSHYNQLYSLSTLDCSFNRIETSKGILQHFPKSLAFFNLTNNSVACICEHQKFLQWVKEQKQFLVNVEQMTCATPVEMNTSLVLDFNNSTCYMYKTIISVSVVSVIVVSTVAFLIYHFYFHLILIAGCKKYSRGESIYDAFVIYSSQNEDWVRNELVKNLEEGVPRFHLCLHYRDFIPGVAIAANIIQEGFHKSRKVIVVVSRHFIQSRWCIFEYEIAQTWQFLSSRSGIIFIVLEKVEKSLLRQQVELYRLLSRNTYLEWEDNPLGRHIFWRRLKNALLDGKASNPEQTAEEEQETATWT

[3] = molecular target: T1, Toll-like receptor 4; test: Agonist activity at TLR4 in human PBMC cells assessed as induction of MIP-1beta release incubated for 20 hrs by ELISA; format: cell-based
[4] = Aqueous stability of the compound assessed as drug degradation at 2 to 8 degreeC and measured upto 12 months by RP-HPLC analysis; format: physicochemical; conditions: buffer, 8760 h
[5] = molecular target: T1, Toll-like receptor 4; test: Agonist activity at TLR4 in human PBMC cells assessed as induction of TNFalpha release incubated for 20 hrs by ELISA; format: cell-based
[6] = molecular target: T1, Toll-like receptor 4; test: Agonist activity at TLR4 in human PBMC cells assessed as induction of IL-1beta release incubated for 20 hrs by ELISA; format: cell-based
[7] = molecular target: T1, Toll-like receptor 4; test: Agonist activity at TLR4 in human PBMC cells assessed as induction of RANTES release incubated for 20 hrs by ELISA; format: cell-based
[8] = Aqueous stability of the compound assessed as drug degradation at 40 degreeC and measured upto 12 months by LC-MS analysis; format: physicochemical; conditions: buffer, 8760 h
[9] = molecular target: T1, Toll-like receptor 4; test: Agonist activity at TLR4 in human MONO-MAC-6 cells assessed as induction of MIP-1beta release incubated for 24 hrs by ELISA; format: cell-based
[10] = Aqueous stability of the compound assessed as drug degradation at 2 to 8 degreeC and measured upto 12 months by LC-MS analysis; format: physicochemical; conditions: buffer, 8760 h
[11] = molecular target: T2, Toll-like receptor 4; test: Agonist activity at mouse TLR4 in human HEK-Blue mTLR4 cells assessed as NF-kappaB activation incubated for 48 hrs by SEAP reporter gene based Quanti-blue assay; format: cell-based
[12] = test system: Mus musculus; test: Immuno-adjuvant activity in H3N2-split A/Victoria/210/2009 influenza virus-immunized BALB/c mouse model assessed as increase in influenza specific serum IgG titer level at 0.001 to 0.1 ug,IM administered on day 0 and 14 and measured after 28 days by ELISA; format: functional, organism-based; conditions: dose 0.001-0.1 µg, time 28.0 day
[13] = test system: Mus musculus; test: Immuno-adjuvant activity in H3N2-split A/Victoria/210/2009 influenza virus-immunized BALB/c mouse model assessed as increase in influenza specific serum IgG2a titer level at 0.001 to 0.1 ug,IM administered on day 0 and 14 and measured after 28 days by ELISA; format: functional, organism-based; conditions: dose 0.001-0.1 µg, time 28.0 day
[14] = Toxicity in H3N2-split A/Victoria/210/2009 influenza virus-immunized BALB/c mouse model assessed as reactogenicity at 0.001 to 0.1 ug,IM administered on day 0 and 14 and measured after 28 days; conditions: in vivo, 672 h, dose 0.001-0.1 µg, time 28 day
[15] = organism: Mus musculus; test: Immuno-adjuvant activity in H3N2-split A/Victoria/210/2009 influenza virus-immunized BALB/c mouse model assessed as increase in influenza specific serum IgG1 titer level at 0.001 to 0.1 ug,IM and measured after 14 days by ELISA; format: functional, organism-based; conditions: dose 0.001-0.1 µg, time 14.0 day
[16] = organism: Mus musculus; test: Immuno-adjuvant activity in H3N2-split A/Victoria/210/2009 influenza virus-immunized BALB/c mouse model assessed as increase in influenza specific serum IgG titer level at 0.001 to 0.1 ug,IM and measured after 14 days by ELISA; format: functional, organism-based; conditions: dose 0.001-0.1 µg, time 14.0 day
[17] = Toxicity in H3N2-split A/Victoria/210/2009 influenza virus-immunized BALB/c mouse model assessed as abnormality at 0.001 to 0.1 ug,IM administered on day 0 and 14 and measured after 28 days; conditions: in vivo, 672 h, dose 0.001-0.1 µg, time 28 day
[18] = test system: Mus musculus; test: Immuno-adjuvant activity in H3N2-split A/Victoria/210/2009 influenza virus-immunized BALB/c mouse model assessed as increase in influenza specific serum IgG1 titer level at 0.001 to 0.1 ug,IM administered on day 0 and 14 and measured after 28 days by ELISA; format: functional, organism-based; conditions: dose 0.001-0.1 µg, time 28.0 day
[19] = Aqueous stability of the compound assessed as drug degradation at 2 to 8 degreeC and measured after 1 month by LC-MS analysis; format: physicochemical; conditions: buffer, 730 h; time 1 months

T1 sequence (O00206 whole entry): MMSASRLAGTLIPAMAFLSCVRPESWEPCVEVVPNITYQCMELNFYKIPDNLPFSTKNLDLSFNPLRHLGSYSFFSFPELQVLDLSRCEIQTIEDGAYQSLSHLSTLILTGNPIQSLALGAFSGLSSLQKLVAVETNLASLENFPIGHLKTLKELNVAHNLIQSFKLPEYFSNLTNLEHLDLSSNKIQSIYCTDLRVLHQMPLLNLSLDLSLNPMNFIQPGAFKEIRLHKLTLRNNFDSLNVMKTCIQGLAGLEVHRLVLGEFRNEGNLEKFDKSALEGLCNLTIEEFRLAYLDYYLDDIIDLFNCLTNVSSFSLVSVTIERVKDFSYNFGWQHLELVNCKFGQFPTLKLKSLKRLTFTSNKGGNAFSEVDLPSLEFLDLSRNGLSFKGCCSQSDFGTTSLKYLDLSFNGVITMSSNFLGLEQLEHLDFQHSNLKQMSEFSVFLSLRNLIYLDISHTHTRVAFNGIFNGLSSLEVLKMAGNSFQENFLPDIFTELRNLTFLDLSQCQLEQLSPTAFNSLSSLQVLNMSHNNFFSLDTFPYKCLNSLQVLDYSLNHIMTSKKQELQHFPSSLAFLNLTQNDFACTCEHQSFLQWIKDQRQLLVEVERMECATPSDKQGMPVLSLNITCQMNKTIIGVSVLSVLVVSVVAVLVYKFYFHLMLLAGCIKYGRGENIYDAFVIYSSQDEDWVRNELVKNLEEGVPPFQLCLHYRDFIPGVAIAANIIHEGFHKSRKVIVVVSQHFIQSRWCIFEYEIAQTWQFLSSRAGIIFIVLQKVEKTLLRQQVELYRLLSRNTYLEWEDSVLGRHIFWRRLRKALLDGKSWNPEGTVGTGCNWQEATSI

| Compound | EC50 [1] [nM] | EC50 [2] [nM] | EC50 [3] [nM] | Stability [4] | EC50 [5] [nM] | EC50 [6] [nM] | EC50 [7] [nM] | Stability [8] | EC50 [9] [nM] | Stability [10] | EC50 [11] [nM] | Activity [12] | Activity [13] | Activity [14] | Activity [15] | Activity [16] | Activity [17] | Activity [18] | Stability [19] |
| --- | --- | --- | --- | --- | --- | --- | --- | --- | --- | --- | --- | --- | --- | --- | --- | --- | --- | --- | --- |
| CCCCCCCCCCC[C@H](CC(=O)NCCO[C@@H]1O[C@H](CO)[C@@H](OP(=O)(O)O)[C@@H](NC(=O)C[C@@H](CCCCCCCCCCC)OC(=O)CCCCCCCCC)[C@H]1NC(=O)C[C@@H](CCCCCCCCCCC)OC(=O)CCCCCCCCC)OC(=O)CCCCCCCCC.CCN(CC)CC | 91.9 | 0.26 | 1.61 | Stable | 28 | 8.77 | 3.68 | Stable | 1.65 | Stable | 0.37 |  |  |  |  |  |  |  |  |
| CCCCCCCCCCC[C@H](CC(=O)N[C@H]1[C@H](OC[C@H](NC(=O)C[C@@H](CCCCCCCCCCC)OCCCCCCCCCC)C(=O)O)O[C@H](CO)[C@@H](OS(=O)(=O)O)[C@H]1NC(=O)C[C@@H](CCCCCCCCCCC)OCCCCCCCCCC)OCCCCCCCCCC.CCN(CC)CC | 26.3 | 0.04 | 0.24 | Stable | 6.88 | 0.97 | 0.46 | Stable | 0.65 | Stable | 0.68 | Active | Active | Non-Toxic | Dose-Dependent Effect | Dose-Dependent Effect | Non-Toxic | Active |  |
| CCCCCCCCCCCCCC(=O)O[C@H](CCCCCCCCCCC)CC(=O)O[C@@H]1[C@@H](NC(=O)C[C@H](CCCCCCCCCCC)OC(=O)CCCCCCCCCCCCC)[C@H](OC[C@H]2O[C@H](O)[C@H](NC(=O)C[C@H](O)CCCCCCCCCCC)[C@@H](OC(=O)C[C@H](O)CCCCCCCCCCC)[C@@H]2O)O[C@H](CO)[C@H]1OP(=O)(O)O | 6.23 | 0.49 | 0.76 |  | 10.4 | 2.11 | 1.92 |  | 0.99 |  | 1.4 |  |  |  |  |  |  |  |  |
| CCCCCCCCCCC[C@H](CC(=O)NCCO[C@@H]1O[C@H](CO)[C@@H](OP(=O)(O)O)[C@H](OC(=O)C[C@@H](CCCCCCCCCCC)OC(=O)CCCCCCCCC)[C@H]1NC(=O)C[C@@H](CCCCCCCCCCC)OC(=O)CCCCCCCCC)OC(=O)CCCCCCCCC | 173 | 0.48 | 1.94 |  | 53.7 | 2.62 | 1.26 |  | 6.75 |  | 0.43 |  |  |  |  |  |  |  | Stable |
